Test results reported in patent US20240294478A1, “ANTI-CANCER COMPOUNDS AND METHODS OF USE” (YALE UNIVERSITY, priority 2021, published 2024).
Read-outs that look alike come from different tables or passages of the source.

Columns and labels:
LN229 MGMT+/MMR− cells = test: Short-term cell viability assay, LN229 MGMT+/MMR- (shRNA targeting MSH2); assay type: cell-based; settings: Homo sapiens
Procedure: LN229 MGMT- and MGMT+ cell lines were a gift from B. Kaina (Johannes Gutenberg University Mainz, Mainz, Germany) and grown in Gibco® Duilbecco's Modified Eagle Medium with 10% fetal bovine serum (DMEM). For each compound tested, the relationship between MGMT status and MMR status and compound activity, in terms of IC50 values ([…]), was determined by the following method. On day 1, LN229 isogenic cells of varying MGMT and MMR status were seeded in 96 well format at a density of 2000 cells/well in 100 μL of DMEM media and allowed to adhere overnight. On day 2, a drug master plate was made with 100×the desired maximal concentration of test compound and serially diluted by 2 until 100×the minimal desired concentration, with one DMSO control. Then daughter plates were created with varied concentrations from 3-times the minimal concentration to 3-times the maximal desired concentration. Afterwards, 50 μL of daughter drug plate was added to 100 μL of the seeded cells for a final concentration of 1×in triplicate. Cells were allowed to grow for 6 days. On day 7, the cells were fixed, and stained with Hoechst nuclear dye and imaged to determine growth inhibition.
For each compound tested, the relationship between MGMT status and MMR status and compound activity, in terms of IC50 values (in μM), was determined. In addition, for each compound, the therapeutic index (TI) was calculated, according to the equation MGMT TI=IC50 (MGMT+/MMR+) divided by IC50 (MGMT−/MMR+). The T1 indicates the efficacy of a compound in treating the targeted MGMT-cancer cells as compared to potential for the same compound to damage, or have adverse effects against, normal cells which are MGMT+cells, The higher the value of the TI, the safer the compound is. […] MMR RI (resistance index)=IC50 (MGMT−/MMR−) divided by IC50 (MGMT−/MMR+). The higher the value of the RI, the less likely that resistance to the compound will develop.
Short-term Cell Viability Assay. Cells were seeded in 96-well plates at 1000 or 2000 cells/well and allowed to adhere at 23° C. for 60 min and then incubated overnight at 37° C. Cells were treated with indicated concentrations of compounds in triplicate for 4-6 days prior to fixation with 3.7% paraformaldehyde and nuclear staining with 1 μg/mL Hoechst 33342 dye. Cells were imaged on a Cytation 3 imaging reader (BioTek) and quantified using CellProfiler software. For in vitro short-term growth delay experiments, IC50 values were determined from the nonlinear regression equation, [inhibitor] vs normalized response with variable slope.

LN229 MGMT+ shPMS2 cells = test: Short-term viability assay, LN229 MGMT+ shPMS2; assay type: cell-based; settings: Homo sapiens, LN-229, Table III, read-out: IC50 against LN229 cell lines, MGMT MMR−
Procedure: (§1) The activity of KL-50 in MGMT-LN229 cells engineered to lack expression of other key MMR proteins including MSH6, MLH1, PMS2, and MSH3 was also confirmed. Western blotting was performed in LN229 MGMT+/−cells with stable expression of shRNA targeting MSH6, MLH1, PMS2, or MSH3 to confirm depletion of the shRNA targets. In shMSH6 cells, there was reduced expression of MSH2, and in shMLH1 cells, there was loss of PMS2, due to destabilization in the setting of loss of their heterodimeric partners. GAPDH serves as loading control. […] Short-term viability assay curves for KL-50 in LN229 MGMT+/−, MMR+/shMSH6 cells. […] Short-term viability assay curves for KL-50 in LN229 MGMT+/−, MMR+/shMLH1 cells. […] Short-term viability assay curves for KL-50 in LN229 MGMT+/−, MMR+/shPMS2 cells. […] Short-term viability assay curves for KL-50 in LN229 MGMT+/−, MMR+/shMSH3 cells.
(§2) MMR Protein shRNA Knockdown. pGIPZ lentiviral shRNA vectors targeting MSH2, MSH6, MLH1, PMS2, and MSH3 were purchased from Horizon Discovery (Table IV). […]
(§3) Short-term Cell Viability Assay. […] Cells were imaged on a Cytation 3 imaging reader (BioTek) and quantified using CellProfiler software. For in vitro short-term growth delay experiments, IC50 values were determined from the nonlinear regression equation, [inhibitor] vs normalized response with variable slope.

[1] = test system: LN229 MGMT+/−, MMR+/− cells; test: Cell cycle analysis; assay type: cell-based, human; settings: 20 μM
Procedure: FIGS. 6A-6E: Selected cell cycle analysis upon drug treatment. FIG. 6A: Percentage of cells in G1, S, and G2 cell cycle phases after treatment, as in FIGS. 5A-5C, measured using integrated nuclear (Hoechst) staining intensity. Columns, mean; error bars, SD; n=3 independent analyses.
Cell Cycle Analysis. Cell cycle analysis was performed using integrated Hoechst nucleic acid dye fluorescence intensity. Briefly, integrated Hoechst fluorescence intensity was log 2 transformed and histograms from DMSO-treated cells were used to identify the centers of the 2N and 4N DNA peaks. These values were used to normalize the 2N DNA peak to 1 and the 4N DNA peak to 2. Cells were then classified by normalized log 2 DNA content as G1 (0.75-1.25), S (1.25-1.75), or G2 (1.75-2.5) phase cells. The percentage of cells within each phase of the cell cycle was determined for each treatment condition. The three sets of Hoechst-stained cells corresponding to the three separate DNA foci stains were treated as three independent analyses.

LN229 MGMT+ shMSH6 cells = test: Short-term viability assay, LN229 MGMT+ shMSH6; assay type: cell-based; settings: Homo sapiens, LN-229, Table III, read-out: IC50 against LN229 cell lines, MGMT MMR−
Procedure: as §1, §2, §3

[2] = LN-229, Table II, read-out: IC50 against LN229 cell lines, MGMT MMR−

In the case of Cn1nnc2c(C(N)=O)ncn2c1=O [TMZ, 4-methyl-5-oxo-2,3,4,6,8-pentazabicyclo[4.3.0]nona-2,7,9-triene-9-carboxamide, reference compound], the IC50 (LN229 MGMT+/MMR− cells; LN-229, 144 h, Table 1, 6 days growth, read-out: IC50 against LN229 cell lines, MGMT+ MMR−) is reported as over 100 µM, the IC50 (LN229 MGMT+/MMR− cells; [2]) is reported as 1000 ± 107 µM and the IC50 (LN229 MGMT+ shPMS2 cells) is reported as 700 ± 58 µM. For the same molecule, the “G2 arrest in MGMT+/MMR+ cells” value [1] was “moderate G2 arrest”, the “G2 arrest in MGMT−/MMR− cells” value [1] was “absent” and the IC50 (LN229 MGMT+ shMSH6 cells) was 929 ± 201 µM.
NC(=O)c1ncn2c(=O)n(CCF)nnc12 [KL-50] was tested, and the IC50 (LN229 MGMT+/MMR− cells; [2]) was 504 ± 55 µM, the IC50 (LN229 MGMT+ shPMS2 cells) was 215 ± 16 µM and the “G2 arrest in MGMT+/MMR+ cells” value [1] was “moderate G2 arrest”. The “G2 arrest in MGMT−/MMR− cells” value [1] was “attenuated G2 arrest”, the “G2 arrest in MGMT−/MMR+ cells” value ([1]; 24 to 48 h) was “increasing G2 arrest” and the IC50 (LN229 MGMT+ shMSH6 cells) was 362 ± 41 µM.
